# Reference: PubChem BioAssay (NCI)
#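 Step 1: Grow cells in 96-well plates. Step 2: Expose to compound for 48 hours at 5 concentrations. Step 3: Interpolate endpoints linearly; if unreached, use highest concentration. The concentration for full growth arrest is given as TGI.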
# How the values were obtained:
# Assay in all cases: NCI anticancer screen, dose series, 48 h
# A549 NSCLC = system: A549 NSCLC
# ACHN renal = system: ACHN renal
# CCRF-CEM leukemia = system: CCRF-CEM leukemia
# COLO 205 colon = system: COLO 205 colon
# DMS 114 small cell lung = system: DMS 114 small cell lung
# DMS 273 small cell lung = system: DMS 273 small cell lung
# EKVX NSCLC = system: EKVX NSCLC
# HCC-2998 colon = system: HCC-2998 colon
# HCT-116 colon = system: HCT-116 colon
# HCT-15 colon = system: HCT-15 colon
# HL-60(TB) leukemia = system: HL-60(TB) leukemia
# HOP-18 NSCLC = system: HOP-18 NSCLC
# HOP-62 NSCLC = system: HOP-62 NSCLC
# HOP-92 NSCLC = system: HOP-92 NSCLC
# HT29 colon = system: HT29 colon
# IGROV1 ovarian = system: IGROV1 ovarian
# K-562 leukemia = system: K-562 leukemia
# KM12 colon = system: KM12 colon
# KM20L2 colon = system: KM20L2 colon
# LOX IMVI melanoma = system: LOX IMVI melanoma
# LXFL 529 NSCLC = system: LXFL 529 NSCLC
# M14 melanoma = system: M14 melanoma
# MOLT-4 leukemia = system: MOLT-4 leukemia
# NCI-H23 lung = system: NCI-H23 lung
# NCI-H460 lung = system: NCI-H460 lung
# OVCAR-3 ovarian = system: OVCAR-3 ovarian
# OVCAR-4 ovarian = system: OVCAR-4 ovarian
# OVCAR-5 ovarian = system: OVCAR-5 ovarian
# OVCAR-8 ovarian = system: OVCAR-8 ovarian
# RPMI-8226 leukemia = system: RPMI-8226 leukemia
# RXF 393 renal = system: RXF 393 renal
# SF-268 CNS = system: SF-268 CNS
# SF-539 CNS = system: SF-539 CNS
# SK-MEL-2 melanoma = system: SK-MEL-2 melanoma
# SK-MEL-28 melanoma = system: SK-MEL-28 melanoma
# SK-MEL-5 melanoma = system: SK-MEL-5 melanoma
# SN12C renal = system: SN12C renal
# SNB-19 CNS = system: SNB-19 CNS
# SNB-75 CNS = system: SNB-75 CNS
# SNB-78 CNS = system: SNB-78 CNS
# SR leukemia = system: SR leukemia
# SW-620 colon = system: SW-620 colon
# TK-10 renal = system: TK-10 renal
# U251 CNS = system: U251 CNS
# UACC-257 melanoma = system: UACC-257 melanoma
# UACC-62 melanoma = system: UACC-62 melanoma
# UO-31 renal = system: UO-31 renal
# A498 renal = system: A498 renal
# CAKI-1 renal = system: CAKI-1 renal
# DLD-1 colon = system: DLD-1 colon
# MALME-3M melanoma = system: MALME-3M melanoma
# NCI-H226 lung = system: NCI-H226 lung
# RXF-631 renal = system: RXF-631 renal
# SF-295 CNS = system: SF-295 CNS
# XF 498 CNS = system: XF 498 CNS
smiles,measurement,setting,value
CCc1nnc(-c2nsc3ccccc23)s1,TGI,A549 NSCLC,> 100 µM
same,TGI,ACHN renal,> 100 µM
same,TGI,CCRF-CEM leukemia,> 100 µM
same,TGI,COLO 205 colon,> 100 µM
same,TGI,DMS 114 small cell lung,> 100 µM
same,TGI,DMS 273 small cell lung,> 100 µM
same,TGI,EKVX NSCLC,> 100 µM
same,TGI,HCC-2998 colon,> 100 µM
same,TGI,HCT-116 colon,> 100 µM
same,TGI,HCT-15 colon,> 100 µM
same,TGI,HL-60(TB) leukemia,> 100 µM
same,TGI,HOP-18 NSCLC,> 100 µM
same,TGI,HOP-62 NSCLC,> 100 µM
same,TGI,HOP-92 NSCLC,> 100 µM
same,TGI,HT29 colon,> 100 µM
same,TGI,IGROV1 ovarian,> 100 µM
same,TGI,K-562 leukemia,> 100 µM
same,TGI,KM12 colon,> 100 µM
same,TGI,KM20L2 colon,> 100 µM
same,TGI,LOX IMVI melanoma,> 100 µM
same,TGI,LXFL 529 NSCLC,> 100 µM
same,TGI,M14 melanoma,> 100 µM
same,TGI,MOLT-4 leukemia,> 100 µM
same,TGI,NCI-H23 lung,> 100 µM
same,TGI,NCI-H460 lung,> 100 µM
same,TGI,OVCAR-3 ovarian,> 100 µM
same,TGI,OVCAR-4 ovarian,> 100 µM
same,TGI,OVCAR-5 ovarian,> 100 µM
same,TGI,OVCAR-8 ovarian,> 100 µM
same,TGI,RPMI-8226 leukemia,> 100 µM
same,TGI,RXF 393 renal,> 100 µM
same,TGI,SF-268 CNS,> 100 µM
same,TGI,SF-539 CNS,> 100 µM
same,TGI,SK-MEL-2 melanoma,> 100 µM
same,TGI,SK-MEL-28 melanoma,> 100 µM
same,TGI,SK-MEL-5 melanoma,> 100 µM
same,TGI,SN12C renal,> 100 µM
same,TGI,SNB-19 CNS,> 100 µM
same,TGI,SNB-75 CNS,> 100 µM
same,TGI,SNB-78 CNS,> 100 µM
same,TGI,SR leukemia,> 100 µM
same,TGI,SW-620 colon,> 100 µM
same,TGI,TK-10 renal,> 100 µM
same,TGI,U251 CNS,> 100 µM
same,TGI,UACC-257 melanoma,> 100 µM
same,TGI,UACC-62 melanoma,> 100 µM
same,TGI,UO-31 renal,> 100 µM
CN1CCN(c2cc(-c3cc4ccccc4o3)oc(=O)c2C#N)CC1,TGI,A498 renal,> 100 µM
same,TGI,A549 NSCLC,> 100 µM
same,TGI,ACHN renal,> 100 µM
same,TGI,CAKI-1 renal,> 100 µM
same,TGI,CCRF-CEM leukemia,> 100 µM
same,TGI,COLO 205 colon,> 100 µM
same,TGI,DLD-1 colon,> 100 µM
same,TGI,DMS 114 small cell lung,> 100 µM
same,TGI,DMS 273 small cell lung,> 100 µM
same,TGI,EKVX NSCLC,> 100 µM
same,TGI,HCC-2998 colon,> 100 µM
same,TGI,HCT-116 colon,> 100 µM
same,TGI,HCT-15 colon,> 100 µM
same,TGI,HL-60(TB) leukemia,> 100 µM
same,TGI,HT29 colon,> 100 µM
same,TGI,IGROV1 ovarian,> 100 µM
same,TGI,K-562 leukemia,> 100 µM
same,TGI,KM12 colon,> 100 µM
same,TGI,KM20L2 colon,> 100 µM
same,TGI,LOX IMVI melanoma,> 100 µM
same,TGI,LXFL 529 NSCLC,> 100 µM
same,TGI,M14 melanoma,> 100 µM
same,TGI,MALME-3M melanoma,> 100 µM
same,TGI,MOLT-4 leukemia,> 100 µM
same,TGI,NCI-H226 lung,60.7 µM
same,TGI,NCI-H23 lung,> 100 µM
same,TGI,NCI-H460 lung,> 100 µM
same,TGI,OVCAR-4 ovarian,> 100 µM
same,TGI,OVCAR-5 ovarian,> 100 µM
same,TGI,OVCAR-8 ovarian,> 100 µM
same,TGI,RPMI-8226 leukemia,> 100 µM
same,TGI,RXF 393 renal,> 100 µM
same,TGI,RXF-631 renal,> 100 µM
same,TGI,SF-268 CNS,> 100 µM
same,TGI,SF-295 CNS,> 100 µM
same,TGI,SF-539 CNS,> 100 µM
same,TGI,SK-MEL-2 melanoma,> 100 µM
same,TGI,SK-MEL-28 melanoma,> 100 µM
same,TGI,SK-MEL-5 melanoma,> 100 µM
same,TGI,SN12C renal,> 100 µM
same,TGI,SNB-19 CNS,> 100 µM
same,TGI,SNB-75 CNS,> 100 µM
same,TGI,SNB-78 CNS,> 100 µM
same,TGI,SR leukemia,> 100 µM
same,TGI,SW-620 colon,> 100 µM
same,TGI,TK-10 renal,> 100 µM
same,TGI,U251 CNS,> 100 µM
same,TGI,UACC-257 melanoma,> 100 µM
same,TGI,UO-31 renal,> 100 µM
same,TGI,XF 498 CNS,> 100 µM
